{
  "source": "patent US9173917B2",
  "about": "“Methods for reducing oxidative stress in a cell with a sulfhydryl protected glutathione prodrug” (Max International, LLC, priority 2003, dated 2015)",
  "key": {"[1]": {"system": "ACP-induced hepatotoxicity", "assay": "Protection from ACP-induced hepatotoxicity in mice (plasma ALT levels)", "type": "in vivo, Male Swiss-Webster mice", "procedure": "Male Swiss-Webster mice weighing 24-34 g were administered ACP [360 mg (or 2.45 mmol)/kg, i.p.].\nIn protocol 4′B, a priming dose of the prodrug (1.25 mmole/kg, i.p.) was administered 60 min prior to ACP followed by a subsequent dose (2.50 mmol/kg) 30 min post-ACP.\nIn protocol 3′B, the pre- and post-ACP doses were reversed.\nIn protocol 1, a single dose of drug was administered 30 min post-ACP.\nProtocol 1′ is identical to 3′B except that the pH of the injection solution was not adjusted. In the B series, the pH of the injection solution was adjusted to neutrality with dilute, aqueous NaOH or HCl"}, "[2]": {"conditions": "unlike GSH or its carboxy esters with free -SH groups that are subject to oxidation; refs (9, 17); cited from earlier work"}},
  "note": "“Also recorded” adds a separate entry of the source.",
  "data": [
    {"smiles": "N[C@H](CSSC[C@H](NC(=O)CC[C@H](N)C(=O)O)C(=O)NCC(=O)O)C(=O)O", "note": "[D-CySSG]", "values": [
      {"measurement": "hepatoprotection against ACP toxicity", "setting": "[1]; FIG. 1, mouse model, protocol 4'B", "value": "lack of significant activity; also recorded: not hepatoprotective; also recorded: lack of hepatoprotection"},
      {"measurement": "plasma alanine aminotransferase (ALT) levels of ACP-treated mice", "setting": "[1]; FIG. 1, protocol 4'B: prodrug 1.25 mmole/kg i.p. 60 min prior to ACP, 2.50 mmol/kg 30 min post-ACP, ACP 360 mg/kg i.p., ALT 24 hrs post-ACP", "value": "statistically similar to that for ACP alone; also recorded: comparable to that for ACP alone"}
    ]},
    {"smiles": "N[C@@H](CCC(=O)N[C@@H](CSSC[C@H](N)C(=O)O)C(=O)NCC(=O)O)C(=O)O", "note": "[L-CySSG, L-cysteine-GSH disulfide]", "values": [
      {"measurement": "stability", "setting": "[2]", "value": "stable"}
    ]},
    {"smiles": "CCOC(=O)CNC(=O)C(CSC(C)=O)NC(=O)CCC(N)C(=O)O", "note": "(stereo not shown) [S-Ac-GSH-OEt, S-acetylglutathione ethyl ester]", "values": [
      {"measurement": "usefulness for treating/preventing oxidative stress in the mouse model", "setting": "[1]; FIGS. 1, 3 and 4", "value": "useful for treating oxidative stress"}
    ]}
  ]
}
